What was measured:
[1] = system: platelet aggregation induced by ADP; experiment: Platelet aggregation inhibitory activity in vivo (Born aggregometer), ADP-induced; parameters: species or system New Zealand rabbits; conditions: Oryctolagus cuniculus, Platelet, ip, dose for 50% inhibition of ADP-induced aggregation curve; rabbits, intraperitoneal, blood 2, 4 and 6 hours after injection; read-out: platelet antiaggregant activity (AAP), DI50, ADP
Protocol: (§1) Determination of the platelet aggregation inhibitory activity in vivo
(§2) The activity of the above described compounds as platelet antiaggregant was tested in vivo on rabbits, by the Born aggregometer. The inhibition of the aggregation curve induced by ADP and thrombin was assessed with different drug concentrations according to the platelet reactivity. New Zealand rabbits which had been held fasting for 12 hours with water ad libitum, were anaesthetized with Nembutal in a dose of 35 mg/kg intramuscolarly. The blood was withdrawn from the carotidal arthery, before (control) and 2, 4, and 6 hours after the intraperitoneal injection of the compounds under examination (at the dose indicated below). The blood samples were taken up in a 3.8% aqueous solution of sodium citrate in a ratio 10:1 and thereupon centrifuged at 1500 r.p.m. for 10 minutes, for obtaining a PRP (platelet rich plasma). A portion of such a plasma was thereupon centrifuged at 8000 r.p.m. for 10 minutes, for obtaining a PPP (platelet lean plasma) which was used for zeroing the measuring apparatus.
(§3) From the results of said experiments, there was determined the dose of each product in mg/kg body weight able to induce a 50% inhibition of the aggregation curve (DI50) after treatment, referred to the curve obtained by the same control plasma before treatment.
(§4) In tables I and II are further indicated for each compound the method of preparation; the melting point PF in °C; the platelet antiaggregant activity (AAP) expressed in terms of DI50 in mg/kg, referred to ADP and thrombin respectively; the antithrombin activity (AT) in %; the anticoagulant activity (AC) in %; the fibrinolytic activity (FL) in %; the acute toxicity (LD50) in mice, intraperitoneally, in mg/kg, as previously defined.

[2] = system: platelet aggregation induced by thrombin; experiment: Platelet aggregation inhibitory activity in vivo (Born aggregometer), thrombin-induced; parameters: species or system New Zealand rabbits; conditions: Oryctolagus cuniculus, Platelet, ip, dose for 50% inhibition of thrombin-induced aggregation curve; rabbits, intraperitoneal, blood 2, 4 and 6 hours after injection; read-out: platelet antiaggregant activity (AAP), DI50, Thrombin
Protocol: as §1, §2, §3, §4

[3] = system: thrombin-induced coagulation of platelet rich plasma; experiment: Antithrombin activity on PRP, Hartert's thromboelastograph; assay type: in vivo, New Zealand rabbits; conditions: Oryctolagus cuniculus, Platelet, ip, percent decrease of index ma/[r+k] vs before treatment; 20 mg/kg intraperitoneal, rabbits
Protocol: Determination of the antithrombin activity
The antithrombin activity on the PRP (platelet rich plasma) obtained following the above described method was assessed by Hartert's thromboelastograph (Hellige model). The coagulation was induced by adding to 0.25 ml of plasma 0.06 ml of a thrombin solution (Roche Topostasin® per os) at 60 units*, pH 7.4**. The antithrombin activity was assessed in terms of a percent decrease of the index (ma/[r+k]) which was calculated from the thromboelastograph diagram, wherein r is the reaction time, k is the speed of the coagulum formation and ma is the maximum spread of the tong, after an intraperitoneal treatment with a dose of 20 mg/kg of each compound under examination, referred to the same index obtained before the treatment (control).
as §4

[4] = system: CaCl2-induced plasma coagulation; experiment: Anticoagulant activity on PRP, Hartert's thromboelastograph; assay type: in vivo, New Zealand rabbits; conditions: Oryctolagus cuniculus, ip, percent increase of total time for coagulum formation (r+k) vs before treatment; 25 mg/kg intraperitoneal, rabbits; read-out: anticoagulant activity (AC)
Protocol: Determination of the anticoagulant activity
The anticoagulant activity was also assessed on PRP of animals treated as described in the preceding methods, by using again Hartert's thromboelastograph method.
The plasma coagulation was induced by adding to 0.25 ml PRP a 1.29% solution of CaCl2.
The anticoagulant effect was determined as a percent increase of the total time for the coagulum formation (the index r+k can be obtained from the thromboelastograph diagram) in a plasma after treatment, referred to the same index obtained before the treatment (control). Again the dose level was 25 mg/kg for each compound under examination, intraperitoneally.
as §4

[5] = system: blood coagulum; experiment: Fibrinolytic activity, Fearnley method (lysis of blood coagulum in toto); assay type: in vivo; conditions: Oryctolagus cuniculus, ip, 0.5 h, percent decrease of coagulum weight after 30 minutes at 37° C.; 25 mg/kg intraperitoneal, rabbits; read-out: fibrinolytic activity (FL)
Protocol: Determination of the fibrinolytic activity
The determination of the fibrinolytic activity was made following the Fearnley method for the lysis of the blood coagulum in toto.
0.2 ml of blood were withdrawn from the marginal vein of the ear of rabbits treated in the same way as the previously described tests, before and after an intraperitoneal injection of the compounds under test at a dose level of 25 mg/kg for each compound.
The blood samples were placed in test tubes containing 1.7 ml of phosphate buffer at pH 7.4 and 0.1 ml of thrombin (Roche Topostasin ® per os) at 50 units NIH/ml, and maintained in an ice bath. The test tubes were maintained at said temperature for 30 minutes and thereupon were transferred to a temperature controlled water bath at 37° C.
The fibrinolytic activity was determined as a percent decrease of the coagulum weight, measured after incubation for 30 minutes at 37° C.
as §4

[6] = Acute toxicity, intraperitoneal; conditions: mouse, in vivo, ip, male Swiss mice, intraperitoneal, 7 days observation; preliminary, by graphic interpolation; read-out: acute toxicity (LD50 / DL50)
Protocol: The acute toxicity limit was determined intraperitoneally on male Swiss mice, weighing 20±2 g, held fasting for 18 hours with water ad libitum.
The animals were maintained under observation for 7 days of treatment, by examining the general symptomatology and noting the death sequency. The preliminary DL50 in mg/kg body weight was calculated by graphic interpolation of the results as obtained.
as §4

Row | Structure (SMILES) | ED50 [1] [mg/kg] | ED50 [2] [mg/kg] | inhibition in vivo at 20 mg/kg [3] [%] | change in vivo at 25 mg/kg [4] [%] | fibrinolytic activity (percent decrease of coagulum weight) at 25 mg/kg [5] [%] | LD50 at 168 h [6] [mg/kg]
1 | C=CCOc1c(OC)cc(C(=O)NCc2cccnc2)cc1C(=O)NCc1cccnc1 [Example 17] | 51.7 | 32.6 | 36 | 14.1 | 23 | 298
2 | CC(C)Oc1ccc(C(=O)NCc2cccnc2)cc1C(=O)NCc1cccnc1 [Example 12] | 50.2 | 30.9 | 25.6 | 12.7 | 20.2 | 615
3 | CC(C)(C)COc1c(C(=O)NCc2cccnc2)cc(C(=O)NCc2cccnc2)cc1[N+](=O)[O-] [Example 35] | 37.1 | 29.7 | 25.4 | 12.6 | 20.2 | 194
4 | C=CCOc1ccc(C(=O)NCc2cccnc2)cc1C(=O)NCc1cccnc1 [Example 7] | 36.3 | 19.2 | 51.5 | 14.5 | 44.7 | 374
5 | CCOc1ccc(C(=O)N(Cc2cccnc2)CC(C)C)cc1C(=O)N(Cc1cccnc1)CC(C)C [Example 44] | 28.7 | 20.9 | 38.6 | 19.3 | 32.5 | 465
6 | CCC(CC)Oc1c(Cl)cc(C(=O)NCc2cccnc2)cc1C(=O)NCc1cccnc1 [Example 30] | 42.2 | 29.5 | 27.9 | 22.3 | 25.8 | 198
7 | COc1cc(C(=O)NCc2cccnc2)cc(C(=O)NCc2cccnc2)c1OC1CC1 [Example 18] | 29.4 | 22 | 33.4 | 20.1 | 28.6 | 228
8 | O=C(NCc1ccncc1)c1ccc(O)c(C(=O)NCc2ccncc2)c1 [Example 57] | 26 | 19.2 | 38.4 | 19 | 32.1 | 661
9 | C=C(C)Oc1c(Cl)cc(C(=O)N(C)Cc2ccncc2)cc1C(=O)N(C)Cc1ccncc1 [Example 68] | 47.5 | 30 | 35.2 | 15.5 | 30 | 255
10 | C=CCOc1c(C(=O)NCc2cccnc2)cc(C(=O)NCc2cccnc2)cc1[N+](=O)[O-] [Example 36] | 36.3 | 27.1 | 23 | 11.9 | 19.1 | 267
11 | C=CCCOc1ccc(C(=O)NCc2cccnc2)cc1C(=O)NCc1cccnc1 [Example 8] | 35.5 | 25.7 | 50.6 | 14.2 | 42.1 | 362
12 | CC(C)Oc1ccc(C(=O)NCc2ccncc2)cc1C(=O)NCc1ccncc1 [Example 62] | 46.8 | 32.3 | 26.5 | 12 | 21.7 | 618
13 | CC(C)CCOc1ccc(C(=O)NCc2ccncc2)cc1C(=O)NCc1ccncc1 [Example 63] | 42.9 | 28.4 | 29.2 | 22.6 | 23.2 | 185
14 | C=CC(C)Oc1ccc(C(=O)NCc2ccncc2)cc1C(=O)NCc1ccncc1 (stereo not drawn) [Example 64] | 35.1 | 24 | 45.9 | 19.2 | 33.6 | 360
15 | C=CC(C)Oc1ccc(C(=O)NCc2cccnc2)cc1C(=O)NCc1cccnc1 (stereo not drawn) [Example 54] | 32.3 | 21.2 | 46.3 | 18.7 | 35.2 | 355
16 | CC(C)=COc1ccc(C(=O)NCc2ccncc2)cc1C(=O)NCc1ccncc1 [Example 65] | 36.7 | 24.5 | 34.2 | 23.8 | 26.5 | 240
17 | CC=COc1c(Cl)cc(C(=O)N(Cc2cccnc2)CC(C)(C)C)cc1C(=O)N(Cc1cccnc1)CC(C)(C)C [Example 48] | 50.3 | 31.9 | 27.6 | 14.4 | 20.1 | 207
